Reference: patent US20210345611A1, “EXTENDED AND CONTINUOUS RELEASE COMPOSITIONS FOR PLANT HEALTH AND METHOD OF USE” (Verdesian Life Sciences U.S., LLC, priority 2018, published 2021)

Assay: PGA stability in 250 mM sodium phosphate aqueous buffers (HPLC)
Format: physicochemical
Method: Analytical note: PGA measurements in this section are done on a free acid basis using HPLC techniques, with PGA peak in each analysis checked for purity using UV-Vis spectroscopy technique by comparison with a known standard reference material. Experiments were conducted to determine the relative stability of PGA to degradation in 250 mM sodium phosphate aqueous buffers at pH levels of interest representing pH levels commonly found in soils. PGA is sufficiently stable at the pH levels of interest. PGA/pH 5.75 L-Pyroglutamic acid was dissolved to a concentration of about 1.0% in 250 mM sodium phosphate aqueous buffer at pH of 5.75, and stored for 24 hours at 50 degrees C. […] PGA/pH 6.75 L-Pyroglutamic acid was dissolved to a concentration of about 1.0% in 250 mM sodium phosphate aqueous buffer at pH of 6.75, and stored for 24 hours at 50 degrees C. […] PGA/pH 7.75 L-Pyroglutamic acid was dissolved to a concentration of about 1.0% in 250 mM sodium phosphate aqueous buffer at pH of 7.75, and stored for 24 hours at 50 degrees C.

Measured: decomposition by HPLC analysis

O=C1CC[C@@H](C(=O)O)N1 [L-Pyroglutamic acid]
No detectable decomposition: about 1.0% in 250 mM sodium phosphate buffer pH 5.75, 24 hours at 50 degrees C | about 1.0% in 250 mM sodium phosphate buffer pH 6.75, 24 hours at 50 degrees C | about 1.0% in 250 mM sodium phosphate buffer pH 7.75, 24 hours at 50 degrees C
